From patent US20250320193A1, “OXOISOINDOLINYL SUBSTITUTED PIPERIDINEDIONE DERIVATIVE AND USE THEREOF” (GLUETACS THERAPEUTICS (SHANGHAI) CO., LTD., priority 2022, published 2025)
pIC50: −log10 of the molar value.

Each molecule was assayed against human Cereblon WT GST-tagged protein (Homo sapiens (Human), UniProt Q96SW2) (assay: CRBN-binding affinity, HTRF (CEREBLON BINDING kit, CISBIO)). Settings: HTRF inhibitory activity.
Procedure: I. Determination of CRBN-binding affinity of compounds of the present disclosure:
The CEREBLON BINDING kits (specification: 10,000 tests; product number: Catalog #64BDCRBNPEH; CISBIO company) was used to determine the CRBN binding ability of the compounds to be tested through a HTRF method (homogeneous time-resolved fluorescence). The specific methods are as follows: • 1. […] Then, 2.5 μL of human Cereblon WT GST-tagged protein solution was added to each well. Finally, 5 μL of the thoroughly mixed Thalidomide-Red reagent and GST Eu antibody working solution were added to each of the aforementioned wells. […] The blank control wells were sequentially added with 2.5 μL of diluent #9 (1X) solution, 2.5 μL of PROTAC binding buffer, and 5 μL of thoroughly mixed Thalidomide-Red reagent and GST Eu antibody working solution. • 4.
The corresponding CRBN binding inhibition rate was calculated using the following method: […]
OD 620 nmcompound is the absorbance value of each well of the compounds to be tested of the present disclosure at an emission wavelength of 620 nm. […] OD 620 nmcontrol is the absorbance value of the blank control well at an emission wavelength of 620 nm. […] OD 620 nmStd0 is the absorbance value of the solvent control well at an emission wavelength of 620 nm.

Chain of human Cereblon WT GST-tagged protein (Q96SW2 whole entry): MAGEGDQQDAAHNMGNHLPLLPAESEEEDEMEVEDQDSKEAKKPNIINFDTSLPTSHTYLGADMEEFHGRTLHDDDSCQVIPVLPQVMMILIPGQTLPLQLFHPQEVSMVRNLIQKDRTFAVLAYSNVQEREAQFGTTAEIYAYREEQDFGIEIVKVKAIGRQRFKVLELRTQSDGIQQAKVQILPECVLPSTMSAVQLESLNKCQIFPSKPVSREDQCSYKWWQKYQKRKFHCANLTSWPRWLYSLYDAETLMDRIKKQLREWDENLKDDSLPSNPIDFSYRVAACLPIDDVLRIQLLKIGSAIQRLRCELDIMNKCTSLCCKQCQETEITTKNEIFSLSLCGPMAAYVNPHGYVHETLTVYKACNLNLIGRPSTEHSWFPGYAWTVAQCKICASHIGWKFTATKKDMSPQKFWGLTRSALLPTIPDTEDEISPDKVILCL

First: O=C1CCC(N2Cc3cc(-c4ccc(CN5CCN(C(c6ccccc6)c6ccccc6)CC5)cc4)ccc3C2=O)C(=O)N1 (centres unmarked) [GT-05867, 3-(5-(4-((4-benzhydrylpiperazin-1-yl)methyl)phenyl)-1-oxoisoindolin-2-yl)piperidine-2,6-dione]
Second: O=C1CCC(N2Cc3cc(CN4CC5(CCN(C(c6ccccc6)c6ccccc6)CC5)C4)ccc3C2=O)C(=O)N1 (centres unmarked) [GT-05901, 3-(5-((7-benzhydryl-2,7-diazaspiro[3.5]nonan-2-yl)methyl)-1-oxoisoindolin-2-yl)piperidine-2,6-dione]
The pIC50 of the first is lower: 5.72 to 6.00 for the first, greater than 6.30 for the second.

`O=C1CCC(N2Cc3cc(C(=O)N4CCN(C(c5ccc(Cl)cc5)c5ccc(Cl)cc5)CC4)cc(F)c3C2=O)C(=O)N1` (centres unmarked) [GT-05887, 3-(5-(4-(bis(4-chlorophenyl)methyl)piperazine-1-carbonyl)-7-fluoro-1-oxoisoindolin-2-yl)piperidine-2,6-dione] and `O=C1CCC(N2Cc3ccc(C(=O)N4CCN(C(c5ccc(Cl)cc5)c5ccc(Cl)cc5)CC4)cc3C2=O)C(=O)N1` (centres unmarked) [GT-05888, 3-(6-(4-(bis(4-chlorophenyl)methyl)piperazine-1-carbonyl)-1-oxoisoindolin-2-yl)piperidine-2,6-dione] fall in the same range of pIC50: 5.72 to 6.00 for the first, 5.72 to 6.00 for the second.

First: O=C1CCC(N2Cc3cc(CN4C[C@@H]5C[C@H]4CN5C(c4ccccc4)c4ccccc4)cc(F)c3C2=O)C(=O)N1 (stereo partly drawn) [GT-05895, 3-(5-(((1S,4S)-5-benzhydryl-2,5-diazabicyclo[2.2.1]heptan-2-yl)methyl)-7-fluoro-1-oxoisoindolin-2-yl)piperidine-2,6-dione]
Second: O=C1CCC(N2Cc3cc(CN4CC5CCC4CN5C(c4ccccc4)c4ccccc4)cc(F)c3C2=O)C(=O)N1 (centres unmarked) [GT-05964, 3-(5-((5-benzhydryl-2,5-diazabicyclo[2.2.2]octan-2-yl)methyl)-7-fluoro-1-oxoisoindolin-2-yl)piperidine-2,6-dione]
The pIC50 of the first is higher: greater than 6.30 for the first, 6.00 to 6.30 for the second. The first is the more potent here.

`O=C1CCC(N2Cc3cc(CN4CC5CCC(C4)N5C(c4ccccc4)c4ccccc4)c(F)cc3C2=O)C(=O)N1` (centres unmarked) [GT-05896, 3-(5-((8-benzhydryl-3,8-diazabicyclo[3.2.1]octan-3-yl)methyl)-6-fluoro-1-oxoisoindolin-2-yl)piperidine-2,6-dione] and `O=C1CCC(N2Cc3cc(CN4CC5CCC(C4)N5C(c4ccccc4)c4ccccc4)cc(F)c3C2=O)C(=O)N1` (centres unmarked) [GT-05897, 3-(5-((8-benzhydryl-3,8-diazabicyclo[3.2.1]octan-3-yl)methyl)-7-fluoro-1-oxoisoindolin-2-yl)piperidine-2,6-dione] fall in the same range of pIC50: 6.00 to 6.30 for the first, 6.00 to 6.30 for the second.

`O=C1CCC(N2Cc3c(ccc(CN4CC5(CCN(C(c6ccccc6)c6ccccc6)CC5)C4)c3F)C2=O)C(=O)N1` (centres unmarked) [GT-05902, 3-(5-((7-benzhydryl-2,7-diazaspiro[3.5]nonan-2-yl)methyl)-4-fluoro-1-oxoisoindolin-2-yl)piperidine-2,6-dione] and `O=C1CCC(N2Cc3cc(CN4CC5(CCN(C(c6ccccc6)c6ccccc6)CC5)C4)c(F)cc3C2=O)C(=O)N1` (centres unmarked) [GT-05903, 3-(5-((7-benzhydryl-2,7-diazaspiro[3.5]nonan-2-yl)methyl)-6-fluoro-1-oxoisoindolin-2-yl)piperidine-2,6-dione] fall in the same range of pIC50: 6.00 to 6.30 for the first, 6.00 to 6.30 for the second.

First: O=C1CCC(N2Cc3cc(CN4CC5(CCN(C(c6ccccc6)c6ccccc6)CC5)C4)cc(F)c3C2=O)C(=O)N1 (centres unmarked) [GT-05904, 3-(5-((7-benzhydryl-2,7-diazaspiro[3.5]nonan-2-yl)methyl)-7-fluoro-1-oxoisoindolin-2-yl)piperidine-2,6-dione]
Second: O=C1CCC(N2Cc3cc(CN4CCC5(CCN(C(c6ccccc6)c6ccccc6)CC5)C4)cc(F)c3C2=O)C(=O)N1 (centres unmarked) [GT-05972, 3-(5-((8-benzhydryl-2,8-diazaspiro[4.5]decan-2-yl)methyl)-7-fluoro-1-oxoisoindolin-2-yl)piperidine-2,6-dione]
The pIC50 of the first is higher: 6.00 to 6.30 for the first, 5.72 to 6.00 for the second.

First: O=C1CCC(N2Cc3cc(C(=O)N4C5CC4CN(C(c4ccccc4)c4ccccc4)C5)cc(F)c3C2=O)C(=O)N1 (centres unmarked) [GT-05916, 3-(5-(3-benzhydryl-3,6-diazabicyclo[3.1.1]heptane-6-carbonyl)-7-fluoro-1-oxoisoindolin-2-yl)piperidine-2,6-dione]
Second: O=C1CCC(N2Cc3cc(C(=O)N4C[C@@H]5C[C@H]4CN5C(c4ccccc4)c4ccccc4)cc(F)c3C2=O)C(=O)N1 (stereo partly drawn) [GT-05978, 3-(5-((1S,4S)-5-benzhydryl-2,5-diazabicyclo[2.2.1]heptane-2-carbonyl)-7-fluoro-1-oxoisoindolin-2-yl)piperidine-2,6-dione]
The pIC50 of the first is higher: greater than 6.30 for the first, 5.72 to 6.00 for the second.

First: O=C1CCC(N2C(=O)c3ccc(C(=O)N4C5CC4CN(C(c4ccccc4)c4ccccc4)C5)cc3C2=O)C(=O)N1 (centres unmarked) [GT-05918, 5-(3-benzhydryl-3,6-diazabicyclo[3.1.1]heptane-6-carbonyl)-2-(2,6-dioxopiperidin-3-yl) isoindoline-1,3-dione]
Second: O=C1CCC(N2Cc3cc(C(=O)N4C5CCC4CN(C(c4ccccc4)c4ccccc4)C5)ccc3C2=O)C(=O)N1 (centres unmarked) [GT-05983, 3-(5-(3-benzhydryl-3,8-diazabicyclo[3.2.1]octane-8-carbonyl)-1-oxoisoindolin-2-yl)piperidine-2,6-dione]
The pIC50 of the first is lower: 5.72 to 6.00 for the first, 6.00 to 6.30 for the second. The second is the more potent here.

`CC1CN(C(c2ccccc2)c2ccccc2)CC(C)N1C(=O)c1cc(F)c2c(c1)CN(C1CCC(=O)NC1=O)C2=O` (centres unmarked) [GT-05921, 3-(5-(4-benzhydryl-2,6-dimethylpiperazine-1-carbonyl)-7-fluoro-1-oxoisoindolin-2-yl)piperidine-2,6-dione] and `O=C1CCC(N2Cc3cc(C(=O)N4CC5CCC(C4)N5C(c4ccccc4)c4ccccc4)cc(F)c3C2=O)C(=O)N1` (centres unmarked) [GT-05981, 3-(5-(8-benzhydryl-3,8-diazabicyclo[3.2.1]octane-3-carbonyl)-7-fluoro-1-oxoisoindolin-2-yl)piperidine-2,6-dione] fall in the same range of pIC50: 6.00 to 6.30 for the first, 6.00 to 6.30 for the second.

`O=C1CCC(N2C(=O)c3cc(F)c(N4CC5CCC4CN5C(c4ccccc4)c4ccccc4)cc3C2=O)C(=O)N1` (centres unmarked) [GT-05936, 5-(5-benzhydryl-2,5-diazabicyclo[2.2.2]octan-2-yl)-2-(2,6-dioxopiperidin-3-yl)-6-fluoroisoindoline-1,3-dione] and `O=C1CCC(N2Cc3cc(CN4C[C@H]5C[C@@H]4CN5C(c4ccccc4)c4ccccc4)c(F)cc3C2=O)C(=O)N1` (stereo partly drawn) [GT-05958, 3-(5-(((1R,4R)-5-benzhydryl-2,5-diazabicyclo[2.2.1]heptan-2-yl)methyl)-6-fluoro-1-oxoisoindolin-2-yl)piperidine-2,6-dione] fall in the same range of pIC50: 6.00 to 6.30 for the first, 6.00 to 6.30 for the second.

First: O=C1CCC(N2Cc3cc(CN4CCC5(CCN(C(c6ccccc6)c6ccccc6)CC5)C4)ccc3C2=O)C(=O)N1 (centres unmarked) [GT-05969, 3-(5-((8-benzhydryl-2,8-diazaspiro[4.5]decan-2-yl)methyl)-1-oxoisoindolin-2-yl)piperidine-2,6-dione]
Second: O=C1CCC(N2Cc3cc(C(=O)N4C[C@@H]5C[C@H]4CN5C(c4ccccc4)c4ccccc4)ccc3C2=O)C(=O)N1 (stereo partly drawn) [GT-05977, 3-(5-((1S,4S)-5-benzhydryl-2,5-diazabicyclo[2.2.1]heptane-2-carbonyl)-1-oxoisoindolin-2-yl)piperidine-2,6-dione]
The pIC50 of the first is lower: 5.72 to 6.00 for the first, 6.00 to 6.30 for the second.

In the case of `O=C1CCC(N2Cc3c(C(=O)N4CCN(C(c5ccc(Cl)cc5)c5ccc(Cl)cc5)CC4)cccc3C2=O)C(=O)N1` (centres unmarked) [GT-05985, 3-(4-(4-(bis(4-chlorophenyl)methyl)piperazine-1-carbonyl)-1-oxoisoindolin-2-yl)piperidine-2,6-dione], the pIC50 was 6.00 to 6.30.
